Measurements reported in PubChem BioAssay AID540265 (Sanford-Burnham Center for Chemical Genomics, 2011).
Activity calls are given as the source filed them. How the calls were made is not given here.

Target: Intestinal-type alkaline phosphatase (Homo sapiens) (UniProt P09923)
Assay: inhibition of intestinal alkaline phosphatase activity – biochemical, luminescence, set 2, SAR follow-up (AID 540265)
Details: purified human IAP, luminescent substrate read-out

Sequence of Intestinal-type alkaline phosphatase (Homo sapiens) (P09923 whole entry, looked up): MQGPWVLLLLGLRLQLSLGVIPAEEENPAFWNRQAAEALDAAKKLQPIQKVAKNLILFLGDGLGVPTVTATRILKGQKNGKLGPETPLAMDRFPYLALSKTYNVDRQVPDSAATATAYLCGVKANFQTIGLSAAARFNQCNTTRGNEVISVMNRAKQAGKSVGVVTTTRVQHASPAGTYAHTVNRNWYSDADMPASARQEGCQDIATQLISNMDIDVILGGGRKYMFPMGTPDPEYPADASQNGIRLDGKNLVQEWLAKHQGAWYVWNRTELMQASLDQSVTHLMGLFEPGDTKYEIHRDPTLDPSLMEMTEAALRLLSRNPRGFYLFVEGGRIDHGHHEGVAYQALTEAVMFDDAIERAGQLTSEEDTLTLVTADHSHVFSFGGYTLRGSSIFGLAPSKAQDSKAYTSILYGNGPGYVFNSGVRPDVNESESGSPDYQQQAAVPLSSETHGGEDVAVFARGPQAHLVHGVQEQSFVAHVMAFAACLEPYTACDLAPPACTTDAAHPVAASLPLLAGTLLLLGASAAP

IC50 | SMILES
> 100 µM (inactive) | O=C(CNS(=O)(=O)c1ccc2[nH]c(=O)oc2c1)Nc1ccc2c(c1)OCO2
> 100 µM (inactive) | N#Cc1ccc(CNC(=O)CCNS(=O)(=O)c2ccc3[nH]c(=O)oc3c2)cc1
> 100 µM (inactive) | O=C(CNS(=O)(=O)c1ccc2[nH]c(=O)oc2c1)NCc1ccc2c(c1)OCO2
> 100 µM (inactive) | COc1ccc(NC(=O)CNS(=O)(=O)c2ccc3[nH]c(=O)oc3c2)cc1OC
> 100 µM (inactive) | Cc1ccc(C)c(NC(=O)CCNS(=O)(=O)c2ccc3[nH]c(=O)oc3c2)c1
